Data published in US8501911B2, “Methods of reducing inflammation and mucus hypersecretion” (Biomarck Pharmaceuticals, Ltd, priority 1999, dated 2013).
Values joined by “and” are separate entries in the source; they are usually repeats but may differ in a detail not shown here. Equal values may be shown once. Read-outs that look alike come from different tables or passages of the source. Residues, ends and D or L forms follow the SMILES beside them. *: point of attachment. Myristoyl = CCCCCCCCCCCCCC(=O)*

Legend:
NHBE cells [1] = test: PMA+8-Br-cGMP-induced mucin secretion from NHBE cells (ELISA); assay type: cell-based, human; details: inhibitor 500 nM, 15 min preincubation, then PMA 100 nM+8-Br-cGMP 1 μM 15 min
Protocol: Peptide Blocking Studies—NHBE cells were preincubated with either the MANS or the RNS peptide (1-100 μM) for 15 min, and then PMA (100 nM)+8-Br-cGMP (1 μM) or UTP (100 μM) was added, and cells were incubated for an additional 15 min or 2 h. respectively. Mucin secretion was measured by ELISA and experimental results are designated as Results-I-2B-1 and Results-I-2B-2, as follows. […]
(§1) Measurement of Mucin Secretion by ELISA—Before collection of “base line” and “test” mucin samples, the accumulated mucus at the apical surface of the cells was removed by washing with phosphate-buffered saline, pH 7.2. To collect the base-line secretion, cells were incubated with medium alone, and secreted mucin in the apical medium was collected and reserved. Cells were rested for 24 h and then exposed to medium containing the selected stimulatory and/or inhibitory reagents (or appropriate controls), after which secreted mucin was collected and reserved as the test sample. Incubation times for the base line and the test were the same but varied depending on the test reagent utilized. Both base line and test secretions were analyzed by ELISA using an antibody capture method as known in the art. See, e.g., Harlow et al., Antibodies: A Laboratory Manual, pp. 570-573, Cold Spring Harbor Laboratory, Cold Spring Harbor, N.Y. (1988). The primary antibody for this assay was 17Q2 (Babco, Richmond, Calif.), a monoclonal antibody that reacts specifically with a carbohydrate epitope on human airway mucins. The ratio of test/base-line mucin, which is similar to a “secretory index”, was used to quantify mucin secretion, allowing each culture dish to serve as its own control and thus, minimizing deviation caused by variability among culture wells. Wright et al., Am. J. Physiol. 271, L854-L861 (1996). Levels of mucin secretion were reported as percentage of the medium control.
MARCKS-related Peptides—Both the myristoylated N-terminal sequence (MANS) and the random N-terminal sequence (RNS) peptides were synthesized at Genemed Synthesis, Inc. (San Francisco, Calif.), then purified by high pressure liquid chromatography (>95% pure), and confirmed by mass spectroscopy with each showing one single peak with an appropriate molecular mass. The MANS peptide consisted of sequence identical to the first 24 amino acids of MARCKS, i.e. the myristoylated N-terminal region that mediates MARCKS insertion into membranes, MA-[…] (SEQ ID NO: 1) (where MA=N-terminal myristate chain). The corresponding control peptide (RNS) contained the same amino acid composition as the MANS but arranged in random order, MA-[…] (SEQ ID NO: 26). The presence of the hydrophobic myristate moiety in these synthetic peptides enhances their permeability to the plasma membranes, enabling the peptides to be taken up readily by cells. To determine the effects of these peptides on mucin secretion, cells were preincubated with the peptides for 15 min prior to addition of secretagogues, and mucin secretion was then measured by ELISA.
Antisense Oligonucleotides—MARCKS antisense oligonucleotide and its corresponding control oligonucleotide were synthesized at Biognostik GmbH (Gottingen, Germany). NHBE cells were treated with 5 μM antisense or control oligonucleotide apically for 3 days (in the presence of 2 μg/ml lipofectin for the first 24 h). Cells were then incubated with secretagogues, and mucin secretion was measured by ELISA. Total RNA and protein were isolated from treated cells. MARCKS mRNA was assessed by Northern hybridization according to conventional procedures using human MARCKS cDNA as a probe. MARCKS protein level was determined by Western blot using purified anti-MARCKS IgG1 (clone 2F12) as the primary detection antibody.
The effect on mucus secretion of a myristoylated peptide containing the first 24 amino acids of the human MARCKS protein (MANS; myristoylated N-terminal sequence; SEQ ID NO: ) was tested. Cultured normal human bronchial epithelial cells as described above were used. […]

NHBE cells [2] = test: UTP-induced mucin secretion from NHBE cells (ELISA); assay type: cell-based, human; details: for activity at 100 µM: Homo sapiens, NHBE
Protocol: In Results-I-1D, NHBE cells were preincubated with the indicated inhibitor for 15 min and then stimulated with 100 μM UTP for 2 h. Secreted mucin in response to the treatment was collected and assayed by ELISA. Data are presented as mean±S.E. (n=6 at each point).
UTP is a well defined pathophysiologically relevant mucin secretagogue. Lethem ct al., Am. J. Respir. Cell Mol. Biol. 9, 315-322 (1993). […] To determine whether PKC and PKG were involved in regulation of mucin secretion in response to a pathophysiological stimulus, effects of PKC/PKG inhibitors on UTP-induced mucin secretion were investigated. NHBE cells were preincubated with various inhibitors for 15 min and then exposed to UTP (100 μM) plus the inhibitor for 2 h. The secreted mucin was measured by ELISA. […] Apparently, mucin secretion in NHBE cells may be regulated by a signaling mechanism involving both PKC and PKG.
Peptide Blocking Studies—NHBE cells were preincubated with either the MANS or the RNS peptide (1-100 μM) for 15 min, and then PMA (100 nM)+8-Br-cGMP (1 μM) or UTP (100 μM) was added, and cells were incubated for an additional 15 min or 2 h. respectively. Mucin secretion was measured by ELISA and experimental results are designated as Results-I-2B-1 and Results-I-2B-2, as follows.
PP2A is an essential component of the mucin secretory pathway. NHBE cells were preincubated with the indicated concentration of fostriecin, okadaic acid (500 nM), or medium alone for 15 min and then stimulated with PMA (100 nM)+8-Br-cGMP (1 μM) for 15 min or with UTP (100 μM) for 2 h. Secreted mucin was measured by ELISA. […] Thus, dephosphorylation of MARCKS by a PKG-activated PP2A appears to be an essential component of the signaling pathway leading to mucin granule exocytosis.
as §1
These experiments were carried out similarly to those described in Example 7. To test for stimulated secretion, the cells were exposed apically and basolaterally to uridine 5′-triphosphate (UTP) at a concentration of 0.1 mM in media. Cells were pre-incubated for 15 minutes with the MANS peptide and test cultures were then co-incubated with the MANS peptide and UTP for 45 minutes.
NHBE cells were pre-incubated with okadaic acid (500 nM) for 15 min at 37° C./5% CO2, then stimulated with PMA (100 nM)+8-Br-cGMP (1 μM) for 15 min, or with UTP (0.1 mM) for 2 hours. Secreted mucin in the apical medium was collected and assayed by ELISA. […]

human neutrophils = test: Human neutrophil chemotactic migration assay; assay type: cell-based; details: test peptide 50 μM; fMLP 100 nM; 0 = inactive
Protocol: Human neutrophils were isolated from heparinized whole blood collected from healthy adult donors via cephalic venipuncture by a slightly modified method as described by Akasaki et al., 1999 (Akasaki T, Koga H, and Sumimoto H., Phosphoinositide 3-kinase-dependent and -independent activation of the small GTPase Rac2 in human neutrophils, J. Biol. Chem. 274:18055-18059, 1999). The blood was mixed with dextran (final concentration 1.4% dextran) and then allowed to settle for 60 minutes, after which time the leukocyte rich plasma was collected and layered onto 5 mL of Ficoll-Paque PLUS in 15 ml, conical tubes. The plasma was centrifuged at 1800 rpm for 20 minutes at room temperature. The residual erythrocytes were lysed utilizing a hypotonic saline and the remaining neutrophils were re-suspended in Hank's balanced salt solution containing 20 mM HEPES and 8.9 mM sodium bicarbonate without calcium or magnesium (HBSS), yielding neutrophils that were greater than 98% pure and greater than 99% viable.
Neutrophil migration assay was performed according to the method described by Frevert C W, Wong V A, Goodman R B, Goodwin R, and Martin T R., Rapid fluorescence-based measurement of neutrophil migration in vitro, J. Immunol. Methods, 213:41-52, 1998. Human neutrophils were labeled with the fluorescent dye calcein for 30 minutes at room temperature. Cells were then washed and resuspended in a migration buffer containing HBSS with 2% FCS. Cells were treated with buffer alone or with the indicated test peptide (50 μM) for 30 minutes at 37° C. Treated cells (1×10^4 cells) were then placed on the upper side of a ChemoTx® chemotaxis plate (Neuroprobe, Gaithersburg, Md.) membrane (2 μm pore size). Lower wells of the plate were filled with migration buffer alone or with buffer containing fMLP (100 nM), LTB4 (100 nM), or PAF (100 nM). Wells containing 1×10^4 labeled cells were used as standards to calculate migration percentage. Cells were allowed to migrate for 1 hour at 37° C. After incubation, cells on the top of the filter were washed away with PBS. Followed by this, 0.5 mM EDTA was added to the top of the filter for 5 min to detach adherent cells and the membrane was again washed. The plate was then centrifuged at 1000 rpm for 1 min. The filter was removed and the fluorescence was measured in the lower wells (485 nm excitation, 530 nm emission wavelength) using an fMax fluorescence plate reader (Molecular Devices, Sunnyvale, Calif.). Percent migration was determined by dividing the fluorescence of each well by the fluorescence of the standard wells containing 1×10^4 labeled cells. A lesser number of migrated neutrophils in the bottom compartment is indicative of the test peptide being an inhibitor of inflammation.

MARCKS = MARCKS phosphorylation in NHBE cells (radiolabeled immunoprecipitation assay); assay type: cell-based, human
Protocol: NHBE cells were labeled with [^32 P]orthophosphate and then exposed to the reagents: (a) Rp-8-Br-PET-cGMP (100 μM); (b) okadaic acid (500 nM); (c) 8-Br-cGMP (1 μM); and (d) PMA (100 nM). MARCKS phosphorylation in response to the treatments was evaluated by immunoprecipitation assay.
To reveal molecular events by which MARCKS links kinase activation to mucin secretion, phosphorylation of MARCKS in response to PKC/PKG activation was investigated in depth, and results are presented as Results-I-4A. […] Once phosphorylated, MARCKS was translocated from the plasma membrane to the cytoplasm. More specifically, the activation of PKC results in MARCKS phosphorylation in NHBE cells. Cells were labeled with [^32 P]orthophosphate for 2 h and then exposed to the stimulatory and/or inhibitory reagents (see below). MARCKS phosphorylation in response to the treatments was evaluated by immunoprecipitation with the following specifics, designated Results-I-4A:
[^32P]phosphate, cells were preincubated for 2 h in phosphate-free Dulbecco's modified Eagle's medium containing 0.2% bovine serum albumin and then labeled with 0.1 mCi/ml [^32 P]orthophosphate (9000 Ci/mmol, PerkinElmer Life Sciences) for 2 h. For labeling with [^3H]myristic acid or ^3H-amino acids, cells were incubated overnight in medium containing 50 μCi/ml [^3H]myristic acid (49 Ci/mmol, PerkinElmer Life Sciences) or 0.2 mCi/ml [^3H]leucine (159 Ci/mmol, PerkinElmer Life Sciences) plus 0.4 mCi/ml [^3H]proline (100 Ci/mmol, PerkinElmer Life Sciences). Following labeling, cells were exposed to stimulatory reagents for 5 min. When an inhibitor was used, cells were preincubated with the inhibitor for 15 min prior to stimulation. At the end of the treatments, cells were lysed in a buffer containing 50 mM Tris-HCl (pH 7.5), 150 mM NaCl, 1 mM EDTA, 10% glycerol, 1% Nonidet P-40, 1 mM phenylmethylsulfonyl fluoride, 1 mM benzamidine, 10 μg/ml pepstatin A, and 10 μg/ml leupeptin. Trichloroacetic acid precipitation and scintillation counting may determine the radiolabeling efficiency in each culture. Immunoprecipitation of MARCKS protein was carried out according to the method of Spizz and Blackshear using cell lysates containing equal counts/min. Spizz et al., J. Biol. Chem. 271, 553-562 (1996). Precipitated proteins were resolved by 8% SDS-polyacrylamide gel electrophoresis and visualized by autoradiography. Anti-human MARCKS antibody (2F12) and nonimmune control antibody (6F6) were used in this assay.
Phosphorylation of MARCKS by PMA was attenuated by Calphostin C (500 nM). NHBE cells also contained substantial amounts of cGMP-dependent protein kinase type 1α (PKG-1α) activity, which was localized to the cytosolic fraction. […] In addition, the phosphorylation of MARCKS induced by PMA was reversed by incubation with 8-Br-cGMP (10 μM).

[3] = inhibitor 500 nM, 15 min preincubation, then UTP 100 μM 2 h

## CCCCCCOC(=O)[C@]1(O)C[C@@H]2O[C@@]1(C)n1c3ccccc3c3c4c(c5c6ccccc6n2c5c31)C(=O)NC4 [KT5720]
NHBE cells [1]
  Mucin secretion as % of control: did not affect
NHBE cells [2]; [3]
  Mucin secretion as percent of control: 157% and 160%

## O=C1C(Nc2ccccc2)=CC(=O)c2ncccc21 [LY83583]
NHBE cells [2]; inhibitor 50 μM, 15 min preincubation, then UTP 100 μM 2 h
  Mucin secretion as percent of control: 111% and 112%

## CCCCCCCCCCCCCC(=O)NCC(=O)N[C@@H](C)C(=O)N[C@@H](CCC(N)=O)C(=O)N[C@@H](Cc1ccccc1)C(=O)N[C@@H](CO)C(=O)N[C@@H](CCCCN)C(=O)N[C@H](C(=O)N[C@@H](C)C(=O)O)[C@@H](C)O [SEQ ID NO: 17, N-myristoyl-GAQFSKTA] (Myristoyl-GAQFSKTA-OH; C-terminus assumed)
Human neutrophils
  Neutrophil Migration (% Inhibition), fMLP: 92.2%

## O=c1ccn([C@@H]2O[C@H](COP(=O)(O)OP(=O)(O)OP(=O)(O)O)[C@@H](O)[C@H]2O)c(=O)[nH]1 [UTP, uridine 5′-triphosphate]
NHBE cells [2]; 0.75 h, 0.1 mM UTP 45 min, no peptide (Results-M-2), read-out: Mucin secretion, % of control levels
  activity at 100 µM: 159%
NHBE cells [2]; 2 h, UTP 100 μM (0.1 mM) 2 h, no inhibitor, read-out: Mucin secretion as percent of control
  activity at 100 µM: 159%
NHBE cells [2]; UTP 100 μM (0.1 mM) 2 h, no inhibitor
  Mucin secretion as percent of control: 156% and 161% and 152%

## Calphostin C
MARCKS; inhibitor 500 nM + 100 nM PMA
  MARCKS phosphorylation (band in immunoprecipitation assay): attenuated
MARCKS; inhibitor 500 nM alone
  MARCKS phosphorylation (band in immunoprecipitation assay): dark band
NHBE cells [2]; [3]
  Mucin secretion as percent of control: 120%
NHBE cells [2]; inhibitor 500 nM, 15 min preincubation, then UTP 100 μM 2 h, listed as calphostin C
  Mucin secretion as percent of control: 121%
